Test results: patent US20250333377A1, “SOLID FORM OF NAPHTHYLAMINE MITOPHAGY INDUCER, AND PREPARATION METHOD THEREFOR, PHARMACEUTICAL COMPOSITION THEREOF AND USE THEREOF” (HANGZHOU PHECDAMED CO., LTD., priority 2023, published 2025)

Columns and labels:
[1] = Crystal form conversion (heat treatment, suspension competition test, DSC analysis); assay type: physicochemical
Source text: The mutual conversion relationship among the A, B, C, D crystal forms of the sodium salt is further studied in this embodiment by heat treatment under nitrogen protection and suspension competition test.
However, the methods of heating, suspension pulping as well as grinding can not study the thermodynamic conversion relationship between crystal form A and crystal form D. In order to further study the thermodynamic conversion relationship of crystal form A and crystal form D, analyzed from the DSC pattern, the DSC of crystal form A is shown in FIG. 2, and the DSC of crystal form D is shown in FIG. 11, the melting point of crystal form A is higher than that of crystal form D, whereas the enthalpy of melting of crystal form A is much lower than that of crystal form D. It may be judged from the thermodynamic stability relationship table that if TA>TD, ΔHf, A>ΔHf, D, crystal form A and D is a univariate relationship, crystal form A is stable, if TA>TD, ΔHf, A<ΔHf, D, crystal forms A and D are reciprocal relationships, if the temperature is higher than the transcrystallization temperature, crystal form A is stable, and if the temperature is lower than the transcrystallization temperature, crystal form D is stable.

[2] = target: Mcl-1 protein (Homo sapiens, UniProt Q07820); experiment: Affinity test of recombinant Mcl-1 protein (SPR, Biacore); assay type: binding
Mcl-1 protein, sequence (Q07820 whole entry, species assumed): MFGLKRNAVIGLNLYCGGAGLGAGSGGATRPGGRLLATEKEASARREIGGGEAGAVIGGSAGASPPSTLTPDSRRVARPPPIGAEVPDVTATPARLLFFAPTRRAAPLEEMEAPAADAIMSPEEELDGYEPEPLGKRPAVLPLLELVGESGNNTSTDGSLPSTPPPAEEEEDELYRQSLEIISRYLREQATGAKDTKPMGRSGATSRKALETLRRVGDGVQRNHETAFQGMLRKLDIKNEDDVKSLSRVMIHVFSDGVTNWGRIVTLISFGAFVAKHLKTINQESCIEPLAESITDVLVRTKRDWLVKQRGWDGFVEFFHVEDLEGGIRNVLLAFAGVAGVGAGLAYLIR
Source text: The binding affinity of the sodium salt D crystal form of TJ01-013 to the Mcl-1 protein is studied by an in vitro Surface Plasmon Resonance (SPR) test, using a Biacore analyzer and measuring with a CM5 chip being coupled to the protein.

[3] = system: HEK293T cells; experiment: Selective induction of autophagy in damaged mitochondria, Keima HEK293 cell model; assay type: cell-based; conditions: 0 μM, 2.5 μM, 5 μM, 10 μM; mitochondria damaged with CCCP; FIG. 42; P=0.0425
Procedure: In HEK293T cells in vitro, fusing Keima fluorescent protein derived from the coral and the mitochondrial localization sequence of cytochrome C oxidase subunit IV asmtKeima protein, staining the nuclei with Hoechst33342 nuclear dye, and using the ThermoCellInsight™ CX7 LZR High Content Screening (HCS) platform at EX/EM=594 nm/620 nm conditions to assess mitophagy levels. The autophagy level of damaged mitochondria is tested by disrupting the mitochondrial membrane potential using […] Carbonyl cyanide 3-chlorophenylhydrazone (CCCP), causing mitochondrial damage.

[4] = system: renal ischemia-reperfusion (I/R) model of SD rats; experiment: Acute kidney injury model caused by unilateral renal ischemia and reperfusion in rats; assay type: in vivo
Procedure: The pharmacodynamic effects of the D crystal form of TJ01-013 are studied in a renal ischemia-reperfusion (I/R) model of SD rats. Each group has twelve male rats of 280-300 g. They are administered by gavage once a day for 3 consecutive days. Three dose groups are divided into 3 mg/kg, 10 mg/kg and 30 mg/kg. The sham group and model control group were administered by equal volumes of 0.5% CMC-Na, and left renal artery ligation is performed 1 h after administration on the fourth day, and right nephrectomy is performed after 45 min of ischemia and before reperfusion, and then administered every day until 3 d after administration. The endpoint of the experiment is 3 d after administration.

[5] = system: SD rat puromycin aminonucleoside (PAN) model; experiment: PAN-induced renal injury model in rats; assay type: in vivo, SD rats
Procedure: The effect of D crystal form of TJ01-013 on renal function is studied in the SD rat puromycin aminonucleoside (PAN) model. Each group has twelve male rats of 160-180 g. On the first day of the experiment, except for the normal control group, rats in the other groups are given a single intraperitoneal injection of 100 mg/kg PAN (aminonucleoside puromycin) to induce the production of proteinuria. After modeling, the rats are randomly divided into the model control group, the three dose groups of 3 mg/kg, 10 mg/kg, and 30 mg/kg of the D crystal form of TJ01-013, and the normal control group. At the same time as intraperitoneal injection of PAN for modeling, the drug is administered by gavage once a day, with a volume of 10 mL/kg, for four consecutive weeks.

[6] = 3 mg/kg, 10 mg/kg, and 30 mg/kg, P<0.05-0.001
[7] = 10 mg/kg and 30 mg/kg, versus model control, P<0.001
[8] = 3, 10, and 30 mg/kg gavage, 7 and 12 d after administration, versus model control

In the case of `O=C(O)C[S+]([O-])c1cc(NS(=O)(=O)c2ccc(Br)cc2)c2ccccc2c1O` (stereo not shown) [Embodiment 4], the “Crystal form conversion / relative stability in suspension competition test” value ([1]; equal amounts mixed, RT/50, magnetic stirring ~1000 rpm, about 20 hours, listed as crystal form D) is reported as “more stable than crystal form B, C”, the “Thermodynamic stability of crystal form A versus crystal form D” value ([1]; judged from DSC data (Tables 9-10)) is reported as “more stable at lower temperatures” and the Kd ([2]; CM5 chip coupled to the protein, read-out: Affinity constant KD) is reported as 1.12 µM. For the same molecule, the kon ([2]; CM5 chip, read-out: Binding constant ka) was 1090 M⁻¹ s⁻¹, the “Remarks (kind of binding)” value ([2]; listed as TJ0113) was “specific” and the “Remarks (kind of binding)” value ([2]; listed as sodium salt D crystal form of TJ01-013) was “can bind specifically to Mcl-1 protein”. For the same molecule, the “Induction of autophagy in damaged mitochondria (mitophagy level, mtKeima)” value [3] was “selectively induce autophagy in the damaged mitochondria”, the Creatinine clearance rate ([4]; 3 mg/kg, 10 mg/kg and 30 mg/kg, versus model control) was “different degrees of improvement” and the “Expression level of inflammatory factor IL-1p in renal tissues” value [4, 6] was “significantly decreased”. The “Expression level of inflammatory factor IL-6 in renal tissues” value [4, 6] was “significantly decreased”, the Urea nitrogen level ([4]; 10 mg/kg and 30 mg/kg, 72 h after ischemia-reperfusion) was “significant trend of decrease” and the “Apoptotic cell rate in renal tissue” value [4, 7] was “significantly decreased”. For the same molecule, the “Expression level of apoptotic factor caspase 9 in renal tissues” value [4, 7] was “significantly decreased”, the Creatinine values ([4]; 10 mg/kg, 24 h, 48 h and 72 h after ischemia-reperfusion, versus model control, P<0.05-0.01) was “significantly decreased” and the “Degree of renal lesions (tubular dilatation, necrosis, glomerular atrophy, inflammatory cell infiltration etc.)” value ([4]; 10 mg/kg, versus model control) was “significantly reduced”. For the same molecule, the Creatinine clearance rate ([4]; 10 mg/kg, versus model control, P<0.05) was “statistically significant”, the Creatinine values ([4]; 30 mg/kg, 24 h and 72 h after reperfusion, P<0.05) was “significantly decreased” and the “Degree of renal lesions (tubular dilatation, necrosis, glomerular atrophy, inflammatory cell infiltration etc.)” value ([4]; 30 mg/kg, versus model control) was “tendency to reduce the above lesions”. For the same molecule, the “Effect on body weight” value ([4]; 3, 10, and 30 mg/kg gavage, 72 h after reperfusion, versus model control) was “no significant effect”, the “Amount of the 24 h urine protein” value [5, 8] was “different degrees of reduction” and the Urine protein concentration [5, 8] was “different degrees of reduction”. For the same molecule, the “Amount of the 24 h urine protein” value ([5]; 3, 10, and 30 mg/kg, 12 d after administration) was “certain trend of reduction”, the Blood albumin ([5]; 3, 10 and 30 mg/kg, 7 d and 12 d after administration, versus model control) was “different degrees of increase” and the “Therapeutic effect on PAN-induced renal injury” value ([5]; gavage 3, 10, 30 mg/kg) was “significant therapeutic effect”. For the same molecule, the “Degree of renal lesions, pathologic microscopy” value ([5]; low, medium and high dose groups) was “reduce the degree of lesions”.
